Converted amounts (≈) assume the structure as drawn.
Tests used:
Assay type in all cases: cell-based
[1] = test system: A431 (Skin); assay: In vitro cytotoxicity, MTT assay, A431; settings: Homo sapiens, A-431, 72 h, read-out: Cytotoxicity
Protocol: (§1) The in vitro cytotoxicity of a selection of compounds were evaluated in a panel of cell lines using the standard MTT assay for a 72 hour incubation period (Table 2). Free payloads produced cytotoxicities in the nanomolar range.
(§2) Tumor cell lines were maintained in RPMI1640 medium supplemented with 10% heat-inactivated fetal bovine serum, 2 mM L-glutamine and 1 mM sodium pyruvate. 1800 cells per well were seeded in a volume of 180 μl in a 96-well flat bottom polystyrene plate. The cells were allowed to adhere overnight at 37° C. in a CO2 incubator. Ligands were initially formulated in DMSO, and stocks stored at −80° C. They were then further formulated at lox concentration in RPMI1640 medium. 20 ul of diluted samples were added into each treatment well. On each plate, blank wells with no cells, and untreated wells containing cells, were included. Plates were then cultured at 37° C. in a CO2 incubator for 72 hrs. Cytotoxicity was evaluated using a tetrazolium salt-based assay, the MTT assay. After 72 hours, the supernatant was removed from each well and 200 μl of a sterile filtered 500 μg/ml MTT solution in water added to each well. The plates were then incubated at 37° C. in a CO2 incubator for 4 hrs. The supernatant was then removed and the formazan crystals formed solubilized by adding 150 μl of DMSO to each well. The plate was then read on a plate reader at 540 nm, and percentage cell survival calculated as follows: ((mean absorbance treated wells at concentration x−mean absorbance blank wells)+(mean absorbance untreated wells at concentration x−mean absorbance blank wells))×100. Data were plotted as concentration in nM vs. % cell survival in Microsoft Excel, and IC50 values (concentration where cell survival is reduced by a half) were determined from the graph.

[2] = test system: E. coli K12; assay: MIC assay, E. coli K12; settings: overnight (16-20 hour) incubation
Protocol: (§3) The antimicrobial activity of a selection of compounds were evaluated in a Gram-negative, Gram-positive and multi-resistant bacteria using the standard minimum inhibitory concentration (MIC) assay for an overnight (16-20 hour) incubation period. Commercially marketed antibiotics (Table 3) were used as positive controls during the study.
(§4) Mueller-Hinton broth (MH Broth) (Sigma-Aldrich; Millipore, cat. no. 70192) and Mueller-Hinton agar (MHA) (Sigma-Aldrich; Millipore, cat. no. 70191) were prepared as per manufacturer's instructions and sterilized by autoclaving. Approximately 20 mL of MHA was poured onto 15×100 mm petri dishes and allowed to set. Agar plates were then stored in plastic bags in an inverted position at 4° C.
(§5) Bacterial strains were provided in the form of a glycerol stock, stored at −80° C. For the purpose of preparation of bacterial suspension, appropriate strains were removed from −80° C. storage onto dry ice and not allowed to freeze-thaw.
(§6) Stock solutions of 16, 45 and 73 were provided in DMSO at 1.28 mg/mL concentration. From this stock solution, working solutions of the desired concentration were prepared by diluting with MHB.
(§7) MIC assay methodology was adapted from previously published work.
(§8) Bacterial isolate to be tested was streaked onto a nutrient-rich MH agar plate and incubated overnight at 37° C. in order to obtain single colonies.
(§9) After overnight incubation, single colonies with the same morphological appearance were chosen from the agar plate. These were touched using a sterile loop and transferred into a tube containing 10 mL of a MH broth. They were then mixed using vortex mixer and incubated at 35-37° C. in a shaker at 200 r.p.m. overnight.
(§10) Determination of OD600 and cfu/mL count OD600 (the optical density of a sample measured at a wavelength of 600 nm) of the overnight culture was measured. Because of the loss of linearity at OD600 values […], it was necessary to dilute the sample until the OD600 value was below 1.0. For all tested bacteria, a dilution of 1:10 was appropriate (100 μL in 900 μL broth).
(§11) The overnight culture was then diluted 1:100 using sterile tubes and MH broth (dilution: 10^−2). Serial dilution was then performed six times until dilution of 10^−8 was reached. 100 μL of dilutions 10^−7 and 10^−8 were plated onto MH agar plates in triplicate using a sterile cell spreader and incubated overnight at 37° C.
(§12) After overnight incubation, colonies on plates were counted and cfu per mL calculated. The following formula was applied: […]
For the generation of overnight cultures to be used for preparation of the bacterial suspension for MIC tests, a single colony of bacteria was selected using a sterile loop and a sterile tube with MH broth was inoculated followed by overnight incubation at […] in a shaker set to 200 r.p.m.
After overnight incubation, the OD600 was measured and the overnight culture was diluted accordingly to obtain 1×10^8 cfu/mL.
Free payload dilutions were prepared as per Table 4.
96-well sterile microtiter plates were used for MIC assay. The plate was filled with the respective free payload or positive control antibiotic concentrations in triplicate. 100 μL of broth was pipetted in the sterility control well (SC, column 12) and 50 μL in the growth control well (GC, column 11).
1×10^8 cfu/mL bacterial suspension was diluted 1:100 and 50 μL added to each well apart from SC. […]
(§13) The 96-well plates were read using a SpectraMax plate reader at an absorbance of 600 nm. […]

[3] = test system: SW48; assay: In vitro cell-killing, MTT assay, SW48; settings: Homo sapiens, SW48, 72 h, read-out: In vitro cell-killing (IC50), Cytotoxicity (72 hours)
Protocol: as §2, with “The plates were then incubated at 37° C. in a CO2 incubator for 4 hrs. The supernatant was then removed and the formazan crystals formed solubilized by adding 150 μl of DMSO to each well.” left out

[4] = test system: EMRSA 16; assay: MIC assay, EMRSA 16; settings: Staphylococcus aureus
Protocol: as §3, §4, §5, §6, §7, §8, §9, §10, §11, §12
After overnight incubation, the OD600 was measured and the overnight culture was diluted accordingly to obtain 1×10^8 cfu/mL. […]
as §13

[5] = test system: REH (ALL); assay: In vitro cytotoxicity, MTT assay, REH; settings: 72 h, read-out: Cytotoxicity
Protocol: as §1, §2

## COc1cc2c(cc1OCCCC(=O)Nc1cc(C(=O)Nc3ccc(-c4cc(C(=O)Nc5ccc(N)cc5)n(C)c4)cc3)n(C)c1)NC[C@@H]1CCCCN1C2=O [Compound 16, (S)—N-(4-Aminophenyl)-4-(4-(4-(4-((2-methoxy-12-oxo-5,6,6a,7,8,9,10,12-octahydrobenzo[e]pyrido[1,2-a][1,4]diazepin-3-yl)oxy)butanamido)-1-methyl-1H-pyrrole-2-carboxamido)phenyl)-1-methyl-1H-pyrrole-2-carboxamide]
[1]
  IC50: 61.5 nM
[2]; E. coli K12 (Gram-negative)
  MIC: 2 to 4 µg/mL
[2]; Escherichia coli, K12, E. coli K12 (Gram-negative)
  MIC: 2 µg/mL (≈ 2.64 µM)
[3]
  IC50: 77 nM
[4]
  MIC: 0.25 to 0.5 µg/mL (≈ 0.329 to 0.659 µM)
[5]
  IC50: 146 nM

Reference: US20210371413A1, “POLYCYCLIC AMIDES AS CYTOTOXIC AGENTS” (FEMTOGENIX LIMITED, priority 2018, published 2021)
